“And” between values parts separate entries of the source, which are not always exact repeats. Equal entries are not always repeated.
Key:
[1] = tested on: MCF-7 human breast adenocarcinoma cells (hormone-dependent); assay: SRB antiproliferative assay, MCF-7; type: cell-based; conditions: for IC50: SRB assay, 48 h incubation; for pIC50 MCF-7: p(IC50)= -Log(IC50), Table S4, this study
Procedure: Stock solutions of compounds 1a–5a and 1–5 (0.01 M) in DMSO were freshly prepared and subsequently diluted with cell culture media to appropriate concentrations for various biological experiments. These included the assessment of cell viability using the SRB assay, micronucleus testing, cell morphology studies, cell cycle arrest, AO/EB staining, and mitochondrial membrane permeabilization tests. For CT-DNA binding studies, experiments were conducted in DMSO/buffer solutions. All biological experiments were performed in triplicate or more.
Stock solutions of 1a–5a and 1–5 (0.01 M) were dissolved in DMSO and subsequently diluted with cell culture medium to the desired concentrations (0.5–30 μM). MCF-7, MDA MB-231, and MRC-5 cells were plated in 96-well flat-bottom microplates at various densities: 6000, 8000, and 2000 cells per well, respectively. The cells were incubated for 24 h at 37 °C and then exposed to 1a–5a and 1–5 for 48 h. ,–
Cytotoxicity was evaluated using the SRB colorimetric assay at λ = 568 nm, with cell survival percentages calculated relative to the untreated control cells. Detailed information on the SRB assay procedure can be found in the previous publication. ,–

MCF-7 cells = assay: AO/EB staining detection of apoptotic cells; type: cell-based, human; conditions: 48 h; for percentage of apoptotic cells: MCF-7, IC50 values, untreated 11.7 ± 2.8%
Procedure: Apoptotic MCF-7 cells were quantified and characterized using the AO/EB staining assay under fluorescence microscopy, and the results were correlated with previously observed morphological changes in the cells. The type of cell death was evaluated after incubation with complexes 1–5 for 48 h. This assay detects nuclear changes based on differences in membrane integrity between live and apoptotic cells. The fluorescent EB dye stains red only those cells that have lost membrane integrity, while the fluorescent AO dye stains both live and dead cells green. , Untreated MCF-7 cells display green radiation emitting nuclei. The percentage of apoptosis in untreated cells was calculated as 11.7 ± 2.8%. In apoptotic cells, varying degrees of changes are observed. Early stages of apoptosis are indicated by greenish-yellow fluorescent nuclei or green-yellow fragments, while late stages are characterized by orange fluorescence or the presence of orange fragments.
The MCF-7 cells were seeded into a 24-well plate (70,000 cells per well) and cultured at 37 °C for 24 h. […] Control and treated cells were collected after 48 h, the cells were harvested, washed twice with PBS and centrifuged. Twenty-five μL of cell suspension in PBS were incubated with 50 μg/mL AO and 50 μg/mL EB solution. Then, the cells were mixed gently and 10 μL of cells in suspension was placed on a glass slide and a coverslip was placed over it. At random, 300 cells were immediately observed in a fluorescent microscope (Optika inverted fluorescence microscope) and examined at ×60 magnification. ,

calf thymus (CT)-DNA = assay: CT-DNA-EB fluorescence displacement; type: binding; conditions: for quenching of fluorescence intensity of EB-DNA at 588 nm: EB 2.3 μM, CT-DNA 26 μM, complex 0–600 μM; for apparent binding constant K app: EB displacement
Procedure: The DNA-complex binding properties can also be studied by fluorescent spectroscopy can also be studied by fluorescent spectroscopy. ,– EB emits intense fluorescence in the presence of DNA due to its strong intercalation between adjacent DNA base pairs. As EB binds to DNA […], its displacement by a compound could indicate either intercalative binding or minor groove interaction, among other possibilities. ,– The emission spectra of the CT-DNA-EB complex were recorded in both the absence and presence of compounds 1–5 (Figure S29). The fluorescence intensity at λmax ^em = 588 nm was quenched by 60.2 (1). 58.5 (2), 62.0 (3), 61.9 (4) and 61.6 (5) %, for 1–5 respectively, compared to the initial fluorescence intensity of the EB-DNA solution.
The fluorescence spectroscopy method using EB was employed to determine the relative DNA binding properties of complexes 1–5 into CT-DNA. The emission spectra at 588 nm of EB (2.3 μM) solutions which contain CT-DNA (26 μM) in the absence or presence of various concentrations of complexes 1–5 (0–600 μM) were recorded upon their excitation at 527 nm. ,− The apparent binding constant (K app) was calculated using the equation: KEB*[EB]=Kapp*[DNA binder] where [DNA binder] is the concentration of the complex at a 50% reduction of the fluorescence, K EB= 10^7 M^–1, and [EB] = 2.3 μM. ,−
The concentration of the drug required to achieve a 50% reduction in fluorescence is determined from the plot of I o/I versus the concentration of the complex [DNA binder], Io/I=1+KSV*[DNA binder] where I o and I represent the fluorescence intensities of CT-DNA in the absence and presence of complexes 1–5, respectively. K SV is the Stern–Volmer dynamic quenching constant and [DNA binder] is the total concentration of the quencher (complexes 1–5). ,−

SMILES | IC50 [1] | pIC50 MCF-7 [1] | relative rate of apoptotic MCF-7 cells in respect to untreated control (MCF-7 cells) | percentage of apoptotic cells (MCF-7 cells) | quenching of fluorescence intensity of EB-DNA at 588 nm (calf thymus (CT)-DNA) | apparent binding constant K app (calf thymus (CT)-DNA)
Clc1cccc(-c2nnc([S][Ag]([PH](c3ccccc3)(c3ccccc3)c3ccccc3)([PH](c3ccccc3)(c3ccccc3)c3ccccc3)[PH](c3ccccc3)(c3ccccc3)c3ccccc3)o2)c1 [compound 5] | 1690 ± 80 nM | 5.8 | 5.5 | 64.3 ± 8.2% | 61.6% | 6.5 × 10^4 M^–1
Fc1ccc(-c2nnc([S][Ag]([PH](c3ccccc3)(c3ccccc3)c3ccccc3)([PH](c3ccccc3)(c3ccccc3)c3ccccc3)[PH](c3ccccc3)(c3ccccc3)c3ccccc3)o2)cc1 [compound 3] | 2150 ± 160 nM | 5.7 | 4.01 and 4.0 | 46.9 ± 8.0% | 62.0% | 7.0 × 10^4 M^–1
Fc1ccccc1-c1nnc([S][Ag]([PH](c2ccccc2)(c2ccccc2)c2ccccc2)([PH](c2ccccc2)(c2ccccc2)c2ccccc2)[PH](c2ccccc2)(c2ccccc2)c2ccccc2)o1 [compound 2] | 2500 ± 190 nM | 5.6 | 5.8 | 64.8 ± 2.5% | 58.5% | 6.7 × 10^4 M^–1
Clc1ccccc1-c1nnc([S][Ag]([PH](c2ccccc2)(c2ccccc2)c2ccccc2)([PH](c2ccccc2)(c2ccccc2)c2ccccc2)[PH](c2ccccc2)(c2ccccc2)c2ccccc2)o1 [compound 4] | 3000 ± 150 nM | 5.5 | 4.03 and 4.0 | 47.2 ± 5.6% | 61.9% | 6.9 × 10^4 M^–1
c1ccc(-c2nnc([S][Ag]([PH](c3ccccc3)(c3ccccc3)c3ccccc3)([PH](c3ccccc3)(c3ccccc3)c3ccccc3)[PH](c3ccccc3)(c3ccccc3)c3ccccc3)o2)cc1 [compound 1] | 2030 ± 90 nM | 5.7 | 5.13 and 5.1 | 60.0 ± 5.2% | 60.2% | 6.3 × 10^4 M^–1

From PMC12239085, “Silver(I) Ions Bridging Oxadiazole-2-thione Derivatives with Mitochondriotropic Agents: A Promising Strategy for Potent Anticancer Chemotherapy” (Inorganic Chemistry, 2025)
